Experimental data: patent US8597904B2, “Pharmaceutical compositions for the treatment of conditions responsive to proteasome inhibition” (priority 2007, dated 2013)
pIC50: −log10 of the molar value.

Columns and labels:
[1] = system: microtubule-associated protein 1 light chain 3 (LC3); assay: immunoblot of LC3 conversion (autophagy) in SK-N-SH cells; assay type: cell-based, human
Procedure: To verify whether autophagy is induced in GlbA-treated cells, levels of microtubule-associated protein 1 light chain 3 (LC3), a reliable marker of autophagosomes, were measured. […] Therefore, this characteristic conversion of LC3 can be used to monitor autophagic activity. SK-N-SH cells were treated with GlbA in the presence or absence of 3-MA, and cell lysates were probed with LC3.

Akt/PKB = assay: Western blot of Akt/PKB and phosphorylation at Ser473 in SK-N-SH cells; assay type: cell-based, human
Procedure: Since Akt/PKB is a well-characterized anti-apoptotic protein, total Akt/PKB levels were measured in treated cells in addition to determining the protein's phosphorylation status at residue Ser473, which is indicative of its activity. SK-N-SH cells were treated with GlbA in the presence or absence of 3-MA, and cell lysates were analyzed for Akt/PKB.

bovine pancreas trypsin = target: T1, bovine pancreas trypsin (Bos taurus, UniProt P00760); assay: SensoLyte Green Protease Fluorometric Assay, trypsin inhibition; assay type: biochemical; conditions: syringolin A up to 500 μM
T1 construct: bovine pancreas trypsin (Pierce); purchased Pierce; host or cells: bovine pancreas
Procedure: To test the specificity of syringolin A inhibition of proteasome activities, bovine pancreas trypsin (Pierce) and Papaya latex papain (Sigma-Aldrich) inhibition assays with syringolin A were performed with the SensoLyte™ Green Protease Fluorometric Assay Kit (AnaSpec., San Jose, Calif., USA) according to the instructions of the manufacturer. Reaction volumes of 100 μl contained an enzyme concentration of 200 ng/ml and various amounts of test inhibitors. Protease activity was monitored at 33° C. in a FluoroCount Microplate Fluorometer (FluoroCount, Packard, Canberra, Australia) using 485 nm excitation and a 550 nm emission filters.

SK-N-SH cells = conditions: values from previous studies with SylA (Coleman et al. 2006); cited from earlier work
[2] = target: T2, proteasome activity in SK-N-SH neuroblastoma cells (Homo sapiens, UniProt P28074); conditions: read-out: IC50 of proteasomal activity, previously determined, Groll et al. 2008; cited from earlier work
T2 construct: endogenous in cells; host or cells: SK-N-SH
T2 sequence (P28074 60-263): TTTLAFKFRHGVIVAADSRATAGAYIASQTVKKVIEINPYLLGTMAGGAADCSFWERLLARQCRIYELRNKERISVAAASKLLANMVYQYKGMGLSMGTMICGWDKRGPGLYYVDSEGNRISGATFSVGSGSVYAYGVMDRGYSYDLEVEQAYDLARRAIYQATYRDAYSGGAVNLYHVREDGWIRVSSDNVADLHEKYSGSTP

T1 sequence (P00760 24-246): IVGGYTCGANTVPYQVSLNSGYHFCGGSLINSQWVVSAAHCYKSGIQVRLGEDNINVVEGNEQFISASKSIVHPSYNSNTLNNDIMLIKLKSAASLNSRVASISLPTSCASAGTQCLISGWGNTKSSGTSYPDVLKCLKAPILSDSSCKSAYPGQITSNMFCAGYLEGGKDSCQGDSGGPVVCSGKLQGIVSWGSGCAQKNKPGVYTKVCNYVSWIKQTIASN

**Q.** With `CCCCCCC/C=C/C=C/C(=O)N[C@H](C(=O)N[C@H]1C[C@@H](O)CCNC(=O)/C=C/[C@H](C)NC1=O)[C@@H](C)O` [glidobactin A] as the molecule, how does the “GlbA-induced autophagy after pre-treatment with 3-MA” value ([1]; GlbA with 3-MA pre-treatment) read?
**A.** reverted GlbA-induced autophagy

**Q.** What about the “LC3-II amount / conversion of LC3” value ([1]; compared to untreated control cells) of the same molecule?
**A.** larger amounts of LC3-II

**Q.** And the “Akt/PKB phosphorylation at Ser473” value (Akt/PKB; GlbA treatment)?
**A.** phosphorylated at Ser473

**Q.** And the “total Akt/PKB levels” value (Akt/PKB; GlbA treatment)?
**A.** slight decrease

**Q.** What about the “Akt/PKB phosphorylation at Ser473 after pre-treatment with 3-MA” value (Akt/PKB; GlbA with 3-MA pre-treatment) of the same molecule?
**A.** prevented

**Q.** Which trypsin activity (bovine pancreas trypsin) does the source give for `CC(C)[C@H](NC(=O)N[C@H](C(=O)N[C@H]1/C=C/CCNC(=O)/C=C/[C@H](C(C)C)NC1=O)C(C)C)C(=O)O` [syringolin A] here?
**A.** not affected

**Q.** What about the EC50 (SK-N-SH cells) of the same molecule?
**A.** ~20 µM

**Q.** And the pIC50 [2]?
**A.** 5.84
